Data published in paper PMC10046377, “Inhibitors of the Oncogenic PA2G4-MYCN Protein-Protein Interface” (Cancers, 2023).

Key:
[1] = system: SK-N-BE(2)-C cells; assay: Alamar Blue cell viability assay, SK-N-BE(2)-C; format: cell-based; details: Homo sapiens, MYCN amplified neuroblastoma cell line
Source text: (§1) The MYCN amplified neuroblastoma cell line SK-N-BE(2)-C was kindly provided by Professor June Biedler (Memorial Sloan Kettering Cancer Centre, New York, NY, USA), and Kelly was obtained from European Collection of Cell Cultures. The two normal lung fibroblast cell lines (MRC-5 and WI-38) were purchased from ATCC. SK-N-BE(2)-C shMYCN#2 doxycycline-inducible cell and Kelly shMYCN#2 doxycycline-inducible cell were custom-made by GenScript (Piscataway, NJ, USA). SK-N-BE(2)-C, SK-N-BE(2)-C shMYCN#2, and SHEP MYCN3 doxycycline-inducible cells were maintained in Dulbecco’s modified Eagle’s medium (DMEM) (Invitrogen, Life Technologies, Waltham, MA, USA) with 10% foetal calf serum (FCS). Kelly and Kelly shMYCN#2 doxycycline-inducible cell were cultured in Roswell Park Memorial Institute (RPMI) 1640 (Invitrogen, Life Technologies) with 10% FCS. MRC-5 and WI-38 were cultured in Alpha-MEM media (Invitrogen, Life Technologies) with 10% FCS. All cells were not cultured for more than 2 months. All used cell lines were authenticated by Cell Bank Australia (Westmead, NSW, Australia) as being free from mycoplasma, and cultured at 37 °C and 5% CO2 in a humidifier incubator.
(§2) Cell viability was determined by the Alamar Blue assay (75 mg resazurin, 12.5 mg methylene blue, 164.5 mg potassium hexacyanoferrate (III), 211 mg potassium hexacyanoferrate (II) trihydrate in 500 mL of phosphate buffered saline). After 6 h incubation with Alamar Blue, the change of fluorescence was measured by Victor 3 multilabel Plate Reader (Perkin Elmer Australia, Melburne, Australia) at an excitation wavelength of 560 nm and an emission wavelength of 590 nm.
(§3) We have shown that the PA2G4 protein increased the half-life of the oncoprotein MYCN through direct binding, and competitive chemical inhibition of this bond by WS6 reduced tumorigenicity both in vitro and in vivo [11]. […] Here, we explored the structure–activity relationship (SAR) of WS6 analogue compounds with the aim to increase efficacy and reduce toxicity. […] The in vitro cytotoxicity of these 14 compounds were measured by cell viability assays using Alamar Blue in MYCN amplified human neuroblastoma (SK-N-BE(2)-C and Kelly) cell lines compared to non-malignant (WI-38, MRC-5) myofibroblast cell lines (Figure 1B,C and Supplementary Figure S1A).

[2] = system: MYCN; assay: Western blot of MYCN protein level; format: cell-based, human; details: Kelly and SK-N-BE(2)-C cells; #5333/#5338: 48 h, 10–30 μM
Description: Protein was extracted from cell pellets using RIPA buffer (Sigma) with 10% protease inhibitor (Sigma, Sydney, Australia). Quantification of proteins was conducted using Pierce BCA protein assay kit (Thermo Scientific), according to manufacturer’s instructions. A total of 30–50 μg protein samples were loaded onto Criterion TGX 10% precast gel (Bio-Rad) or NuPAGE™ 4–12% Mini Protein Gel (Invitrogen, Life technologies) and transferred to a nitrocellulose membrane (Bio-Rad). The membrane was blocked in 5% skim milk in Tris-buffered saline with Tween-20 (20 mM Tris-HCl (pH 7.6), 137 mM NaCl, 0.1% Tween-20) for an hour before incubation at 4 °C overnight with the following primary antibodies: mouse anti-MYCN(1:2000, Santa-Cruz, Cat# sc-53993), rabbit anti-PA2G4 (1:2000, Atlas Antibodies, Cat# HPA016484), rabbit anti-PARP (1:1000, Cell Signalling Technologies, Danvers, MA, USA, Cat# 9542), rabbit anti-Caspase-3 (1:500, Cell Signalling Technologies, Cat# 9662), mouse anti-Bcl-2 (1:1000, Cell Signalling Technologies, Cat# 15071), rabbit anti-Bax (1:1000, Cell Signalling Technologies, Cat# 2772), mouse anti-Vinculin (1:2000, Sigma, Cat# V9131), mouse anti-GAPDH (1:2000, Santa-cruz, Cat# sc-365062), rabbit anti-β-actin (1:5000, Sigma, Cat# SAB2100037), rabbit anti-GATA2 (1:1000, Cell Signalling Technologies, Cat# 4595), mouse anti-Flag/DYKDDDDK tag (1:1000, Cell Signalling Technologies, Cat# 8146). Anti-mouse or anti-rabbit horseradish peroxidase secondary antibodies (1:5000, Life technologies, Cat# 31430, 31460) were added and incubated for 2 h at room temperature. Immunoblots were visualised by Clarity ECL reagent (Bio-Rad) and ChemiDoc MP Imaging System (Bio-Rad). Quantification of protein expression was measured by Image Lab software (Bio-Rad) and normalised to loading control.
Next, we examined whether #5333 and #5338 treatment for 48 h affected the levels of WS6 target proteins, PA2G4, and MYCN in neuroblastoma cells. […] Cell viability was measured following #5333 and #5338 treatments for 48–72 h. […] Cell viability was measured following #5333, #5338, or WS6 treatments for 72 h.

[3] = system: WI-38 cells; assay: Alamar Blue cell viability assay, WI-38 non-malignant myofibroblasts; format: cell-based; details: Homo sapiens, read-out: IC50 WI-36
Source text: as §1, §2, §3

IC50 [1] [µM] | SMILES | MYCN protein levels (Western blot) [2] | IC50 [3] [µM]
23.3 | Cc1cccc(Oc2cc(N3CCC(C(=O)N[C@@H](C)CCc4ccccc4)CC3)ncn2)c1C [#5338] | significantly reduced MYCN levels | 100
26.5 | Cc1cccc(Oc2cc(N3CCC(C(=O)NCc4cccc(Br)c4)CC3)ncn2)c1C [#5333] | significantly reduced MYCN levels | 100
30 | Cc1cccc(Oc2cc(N3CCC(C(=O)NCc4cccc(C(F)(F)F)c4)CC3)ncn2)c1C [#3567] | significantly reduced | 80
